One assay has as its target T1, 5-LOX (Homo sapiens, UniProt P09917).
T1 sequence (P09917 1-674): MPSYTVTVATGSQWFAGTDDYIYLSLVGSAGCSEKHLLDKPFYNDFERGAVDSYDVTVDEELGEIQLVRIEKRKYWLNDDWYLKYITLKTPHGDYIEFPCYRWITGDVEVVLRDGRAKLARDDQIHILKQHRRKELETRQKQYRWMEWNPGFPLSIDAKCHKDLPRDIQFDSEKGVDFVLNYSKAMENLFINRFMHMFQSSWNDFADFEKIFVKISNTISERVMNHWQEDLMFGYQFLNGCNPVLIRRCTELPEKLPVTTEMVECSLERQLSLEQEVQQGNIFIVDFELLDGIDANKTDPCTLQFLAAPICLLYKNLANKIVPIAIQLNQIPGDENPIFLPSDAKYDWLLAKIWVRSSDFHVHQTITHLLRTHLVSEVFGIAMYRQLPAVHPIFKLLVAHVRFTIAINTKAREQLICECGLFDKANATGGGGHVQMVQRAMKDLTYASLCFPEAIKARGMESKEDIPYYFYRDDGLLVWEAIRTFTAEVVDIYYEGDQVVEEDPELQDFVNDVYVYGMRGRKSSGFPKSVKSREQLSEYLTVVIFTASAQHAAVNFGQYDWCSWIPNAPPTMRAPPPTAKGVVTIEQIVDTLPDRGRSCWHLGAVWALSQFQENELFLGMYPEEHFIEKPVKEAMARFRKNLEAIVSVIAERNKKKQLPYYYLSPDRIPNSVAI
Description: Cell-free 5-LOX activity (isolated human recombinant enzyme).

The target of the next assay is T2, human recombinant sEH (Homo sapiens, UniProt P34913).
T2 construct: made in house; host or cells: Sf9 insect cells (recombinant baculovirus)
In words: sEH activity. It counts as biochemical. The protocol: Human recombinant sEH was expressed in Sf9 insect cells and purified by affinity chromatography.[83] Briefly, Sf9 cells were infected with a recombinant baculovirus and lysed after 72 h in 50 mM NaHPO4 pH 8, 300 mM NaCl, 10% glycerol, 1 mM EDTA, 1 mM phenylmethanesulfonyl fluoride, 10 μg/mL leupeptin, and 60 μg/mL STI by sonication (3 × 10 s, 4 °C). […] Elution with 4-fluorochalcone oxide in PBS pH 7.4 with 1 mM dithiothreitol and 1 mM EDTA yielded sEH, which was dialyzed and concentrated.
Purified sEH (60 ng) in 25 mM Tris HCl pH 7 with 0.1 mg/mL bovine serum albumin (BSA) was preincubated with the vehicle (DMSO) or 27a for 10 min at room temperature. The sEH substrate PHOME (50 μM, Cayman Chemicals) was added to start the enzymatic reaction, which was stopped after 60 min in darkness by addition of ZnSO4 (200 mM). The formation of the fluorescent product 6-methoxynaphtaldehyde was measured using a NOVOstar fluorescence microplate reader (BMG Labtech, Ortenberg, Germany), with excitation at 330 and emission at 465 nm.

For the next assay, the target named is T3, human recombinant COX-2 (Homo sapiens, UniProt P35354).
T3 construct: purchased Cayman Chemicals
In words: COX-2 activity. In kind it is biochemical. On the procedure: Purified ovine COX-1 (Cayman Chemicals; 50 units) or human recombinant COX-2 (Cayman Chemicals; 20 units) was dissolved in 100 mM Tris buffer pH 8, 5 mM glutathione, 5 μM hemoglobin, and 100 μM EDTA. COX isoenzymes were preincubated with the vehicle (DMSO) or 27a for 5 min at 4 °C and 1 min at 37 °C. Addition of arachidonic acid (COX-1: 5 μM; COX-2: 2 μM) initiated the formation of COX-derived 12(S)-hydroxy-5-cis-8,10-trans-heptadecatrienoic acid (12-HHT), which was extracted and analyzed by RP-HPLC according to 5-LOX products.

The results in this text go back to paper PMC8365602 (Journal of Medicinal Chemistry, 2021).

Each structure is given as a SMILES string.

T2 sequence (P34913 whole entry): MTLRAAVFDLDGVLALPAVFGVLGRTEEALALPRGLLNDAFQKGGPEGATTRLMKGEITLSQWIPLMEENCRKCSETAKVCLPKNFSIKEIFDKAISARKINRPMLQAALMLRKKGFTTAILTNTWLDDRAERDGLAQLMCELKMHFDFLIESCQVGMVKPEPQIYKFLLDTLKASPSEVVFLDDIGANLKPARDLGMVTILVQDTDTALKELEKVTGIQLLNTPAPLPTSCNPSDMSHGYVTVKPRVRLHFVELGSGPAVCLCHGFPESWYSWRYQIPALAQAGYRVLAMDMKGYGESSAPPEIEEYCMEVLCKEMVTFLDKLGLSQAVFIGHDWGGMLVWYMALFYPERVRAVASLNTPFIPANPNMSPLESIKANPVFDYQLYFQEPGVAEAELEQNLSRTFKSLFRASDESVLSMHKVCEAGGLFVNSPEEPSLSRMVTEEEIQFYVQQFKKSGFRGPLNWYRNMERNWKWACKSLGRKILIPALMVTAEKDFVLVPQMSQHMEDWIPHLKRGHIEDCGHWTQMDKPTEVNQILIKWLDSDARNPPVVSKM
T3 sequence (P35354 18-604): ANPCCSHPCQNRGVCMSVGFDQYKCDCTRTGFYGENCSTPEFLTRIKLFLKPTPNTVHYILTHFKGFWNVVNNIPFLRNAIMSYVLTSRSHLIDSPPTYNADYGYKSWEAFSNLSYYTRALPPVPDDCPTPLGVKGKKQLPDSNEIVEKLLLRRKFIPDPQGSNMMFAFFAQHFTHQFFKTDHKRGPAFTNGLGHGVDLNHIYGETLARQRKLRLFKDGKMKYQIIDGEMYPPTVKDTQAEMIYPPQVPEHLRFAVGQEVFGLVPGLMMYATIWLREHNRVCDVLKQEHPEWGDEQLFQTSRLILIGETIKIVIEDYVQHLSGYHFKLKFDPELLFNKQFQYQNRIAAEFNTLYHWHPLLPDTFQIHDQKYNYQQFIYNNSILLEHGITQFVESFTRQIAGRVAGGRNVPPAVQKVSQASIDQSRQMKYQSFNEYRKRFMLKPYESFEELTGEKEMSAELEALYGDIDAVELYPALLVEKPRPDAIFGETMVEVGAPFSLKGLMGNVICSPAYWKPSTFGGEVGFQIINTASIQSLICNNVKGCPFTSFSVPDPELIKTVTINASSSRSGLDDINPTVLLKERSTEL

As for `C/C(=C\CC/C(C)=C/CC[C@]1(C)CCc2c(C)c(O)c(C)c(C)c2O1)CCC=C(CO)CO` [Compound 27a, α-amplexichromanol], the “Effect of Triton X-100 on 5-LOX inhibition” value on 5-LOX (Triton X-100 (0.01%)) is “did not substantially impair 5-LOX inhibition”. Further, the “Dependence of 5-LOX inhibition on substrate (arachidonic acid) concentration” value on 5-LOX (human recombinant 5-LOX) is “independent of the substrate concentration”. Besides, the “Reversibility of 5-LOX inhibition” value at 5-LOX (preincubation 15 min, 10-fold dilution) was “reversible”. For the same compound, on 5-LOX (read-out: 5-LOX enzyme IC50, isolated human 5-LOX, cell-free, mean ± SEM), the half-maximal inhibitory concentration (IC50) was determined as 110 ± 30 nM. Also, the remaining activity at 1 µM at 5-LOX (read-out: 5-LOX enzyme residual activity at 1 μM) was determined as 0.1%. Moreover, the sEH inhibition entry at human recombinant sEH was “not substantially inhibited”. The COX-2 inhibition result at human recombinant COX-2 is “not substantially inhibited”.
